{"source": "paper PMC8730463", "about": "“The human gut symbiont Ruminococcus gnavus shows specificity to blood group A antigen during mucin glycan foraging: Implication for niche colonisation in the gastrointestinal tract” (PLoS Biology, 2021)", "key": {"[1]": {"target": "T1, RgGH98", "T1 construct": "gene RGna_RS10325; 44–946 aa (N-term GBLD, catalytic domain, C-term domain)", "test": "crystal structure ([…] Å), ITC and STD NMR", "assay_type": "binding, Mediterraneibacter gnavus"}, "[2]": {"target": "T2, Ulex Europaeus Agglutinin I (UEA I) (Ulex europaeus, UniProt P22972)", "T2 sequence (P22972 1-243)": "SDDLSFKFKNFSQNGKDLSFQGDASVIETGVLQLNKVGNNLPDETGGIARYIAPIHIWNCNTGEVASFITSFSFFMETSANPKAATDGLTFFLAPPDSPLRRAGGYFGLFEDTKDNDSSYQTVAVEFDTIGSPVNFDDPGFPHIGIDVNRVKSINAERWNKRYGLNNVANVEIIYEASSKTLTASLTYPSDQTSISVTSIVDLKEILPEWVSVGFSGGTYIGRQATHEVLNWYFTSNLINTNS", "test": "ITC (control lectin)", "assay_type": "binding"}}, "data": [{"smiles": "CC(=O)N[C@H]1[C@@H](O[C@H]2[C@@H](O)[C@@H](CO)O[C@@H](O[C@H]3[C@H](O)[C@@H](NC(C)=O)C(O)O[C@@H]3CO)[C@@H]2O[C@@H]2O[C@@H](C)[C@@H](O)[C@@H](O)[C@@H]2O)O[C@H](CO)[C@H](O)[C@@H]1O", "note": "(some centres unmarked) [BgA II, blood group A tetrasaccharide type II]", "values": [{"measurement": "Kd", "setting": "[1]", "value": 490, "unit": "µM"}]}, {"smiles": "CC(=O)N[C@H]1C(O)O[C@H](CO)[C@@H](O[C@@H]2O[C@H](CO)[C@H](O)[C@H](O)[C@H]2O[C@@H]2O[C@@H](C)[C@@H](O)[C@@H](O)[C@@H]2O)[C@@H]1O", "note": "(some centres unmarked) [BgH, blood group H trisaccharide]", "values": [{"measurement": "Kd", "setting": "[2]", "value": 10.3, "unit": "µM"}]}]}
